These results are taken from ChEMBL document CHEMBL1268959, “Synthesis and pharmacological activity of 1,3,6-trisubstituted-4-oxo-1,4-dihydroquinoline-2-carboxylic acids as selective ET(A) antagonists” (Bioorg Med Chem Lett, 2010).

The target of assay [1] is T1, Endothelin receptor type B (Homo sapiens, UniProt P24530).
T1 sequence (P24530 whole entry): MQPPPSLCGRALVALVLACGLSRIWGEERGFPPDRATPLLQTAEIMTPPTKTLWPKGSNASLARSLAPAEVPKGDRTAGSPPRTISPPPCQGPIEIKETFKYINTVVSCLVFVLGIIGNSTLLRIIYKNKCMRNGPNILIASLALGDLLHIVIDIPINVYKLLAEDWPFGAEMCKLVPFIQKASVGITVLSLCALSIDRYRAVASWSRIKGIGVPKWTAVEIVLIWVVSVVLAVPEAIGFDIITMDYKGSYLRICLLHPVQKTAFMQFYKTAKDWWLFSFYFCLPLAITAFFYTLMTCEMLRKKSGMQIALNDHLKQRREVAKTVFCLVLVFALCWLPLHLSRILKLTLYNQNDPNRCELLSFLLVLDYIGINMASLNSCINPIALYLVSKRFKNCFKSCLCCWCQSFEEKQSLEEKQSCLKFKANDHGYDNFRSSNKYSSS
The assay can be described thus: Displacement of [125I]ET1 from human ETB receptor expressed in membranes. In general terms: Loss of bound radioactivity is the signal in a displacement assay; it reports binding, not function.

The next assay has as its target T2, Endothelin-1 receptor (Homo sapiens, UniProt P25101).
T2 sequence (P25101 whole entry): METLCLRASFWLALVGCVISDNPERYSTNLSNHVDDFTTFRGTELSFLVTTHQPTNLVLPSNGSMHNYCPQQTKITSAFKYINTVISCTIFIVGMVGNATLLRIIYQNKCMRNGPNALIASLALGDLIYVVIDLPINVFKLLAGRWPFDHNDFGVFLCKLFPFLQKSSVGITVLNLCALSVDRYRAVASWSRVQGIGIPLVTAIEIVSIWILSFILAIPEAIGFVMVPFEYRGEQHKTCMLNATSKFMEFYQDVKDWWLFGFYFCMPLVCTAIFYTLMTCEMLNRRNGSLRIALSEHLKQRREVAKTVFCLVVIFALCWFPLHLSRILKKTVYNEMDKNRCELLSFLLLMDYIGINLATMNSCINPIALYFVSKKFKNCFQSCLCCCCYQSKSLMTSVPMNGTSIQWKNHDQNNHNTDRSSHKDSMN
Kind of assay: Displacement of [125I]ET1 from ETA receptor expressed in african green monkey CCL-81 cells monolayer. Format: cell-based.

Assay [2] in a line: Selectivity ratio, ratio of IC50 for ETB receptor to IC50 for ETA receptor.
The next assay is filed under the species Mus musculus. Kind of assay: Inhibition of LPS-induced preterm delivery in pregnant mouse model. The assay is classed as functional, organism-based.
Assay [3] deals with Hamster. The assay can be described thus: Antiinflammatory activity against cigarette smoke-induced lung inflammation in hamster model assessed as reduction in bronchoalveolar lavage fluid leukocytes. Format: functional, organism-based. The following applies: Cricetinae.
Assay [4] relates to Hamster. The assay can be described thus: Antiinflammatory activity against LPS-induced lung inflammation in hamster model assessed as reduction in bronchoalveolar lavage fluid leukocytes. The assay is classed as functional, organism-based. The following applies: Cricetinae.
In assay [5] the test system is Hamster. Kind of assay: Antiinflammatory activity against ET1-induced lung inflammation in hamster model assessed as reduction in bronchoalveolar lavage fluid leukocytes. Format: functional, organism-based. The following applies: Cricetinae.

Each structure is given as a SMILES string. Activity calls are given as the source filed them. The calls are words filed in the database; no cut-off is given here.

One may read the IC50 as the concentration that inhibits the measured activity by half. As to `CCc1cc2c(cc1Cn1c(C(=O)O)c(Cc3cccc(C(=O)O)c3)c(=O)c3cc(OCCCO)ccc31)OCO2`, the figures for the IC50 (in assay [1]; at Endothelin-1 receptor) were 4390 nM and 7.4 nM, respectively. Also, in assay [2], the Ratio IC50 came out at 593.
Take `CC(C)C[C@@H]1NC(=O)[C@@H](C(C)C)NC(=O)[C@@H]2CCCN2C(=O)C(CC(=O)O)NC(=O)[C@@H](Cc2c[nH]c3ccccc23)NC1=O` (single isomer, unassigned) [BQ-123]: on Endothelin-1 receptor, the concentration for half-maximal inhibition (IC50) is 24.8 nM.
For the molecule `CCc1cc2c(cc1Cn1c(C(=O)O)c(Cc3cccc(C(=O)O)c3)c(=O)c3cc(O)ccc31)OCO2`, the inhibition entry in the assay filed under Mus musculus, in the assay on Hamster [3], in the assay on Hamster [4] and with Hamster [5] was “Active” throughout. Further, the values for the IC50 (in assay [1]; at Endothelin-1 receptor) were 15600 nM and 38.9 nM, respectively. Moreover, in assay [2], the Ratio IC50 was found to be 399.
As to `CCOc1ccc2c(c1)c(=O)c(Cc1cccc(C(=O)O)c1)c(C(=O)O)n2Cc1cc2c(cc1CC)OCO2`, the IC50 in assay [1] is 3120 nM; at Endothelin-1 receptor, 6.6 nM. Besides, the Ratio IC50 in assay [2] worked out at 473.
Taken in the same sequence, the figures for `CCc1cc2c(cc1Cn1c(C(=O)O)c(Cc3cccc(C(=O)O)c3)c(=O)c3cc(OC(C)C)ccc31)OCO2` were 677 nM, 13.5 nM and 50.
Taken in the same sequence, the figures for `CCCCOc1ccc2c(c1)c(=O)c(Cc1cccc(C(=O)O)c1)c(C(=O)O)n2Cc1cc2c(cc1CC)OCO2` were 548 nM, 1.44 nM and 381.
Regarding `CCc1cc2c(cc1Cn1c(C(=O)O)c(Cc3cccc(C(=O)O)c3)c(=O)c3cc(OC(C)CC)ccc31)OCO2` (stereo unspecified), on Endothelin-1 receptor, the IC50 is 9.9 nM.
On to `C=CCOc1ccc2c(c1)c(=O)c(Cc1cccc(C(=O)O)c1)c(C(=O)O)n2Cc1cc2c(cc1CC)OCO2`, for which the half-maximal inhibitory concentration (IC50) in assay [1] turned out to be 1130 nM; at Endothelin-1 receptor, 38.1 nM. The Ratio IC50 in assay [2] turned out to be 30.
`CCCCCOc1ccc2c(c1)c(=O)c(Cc1cccc(C(=O)O)c1)c(C(=O)O)n2Cc1cc2c(cc1CC)OCO2` yielded an IC50 on Endothelin-1 receptor of 610 nM.
In the case of `CCc1cc2c(cc1Cn1c(C(=O)O)c(Cc3cccc(C(=O)O)c3)c(=O)c3cc(OCC(=O)O)ccc31)OCO2`, the 50% inhibitory concentration (IC50) in assay [1] came to 1450 nM; at Endothelin-1 receptor, 285 nM. Moreover, in assay [2], the Ratio IC50 is 5.
Consider `CCc1cc2c(cc1Cn1c(C(=O)O)c(Cc3cccc(C(=O)O)c3)c(=O)c3cc(OCC4CC4)ccc31)OCO2`, for which the IC50 on Endothelin-1 receptor amounted to 116 nM.
`CCCOc1ccc2c(c1)c(=O)c(Cc1cccc(C(=O)O)c1)c(C(=O)O)n2Cc1cc2c(cc1CC)OCO2`: the 50% inhibitory concentration (IC50) in assay [1] came out at 913 nM; at Endothelin-1 receptor, 0.11 nM. In addition, in assay [2], the Ratio IC50 came out at 8300.
Taken in the same sequence, the figures for `CCc1cc2c(cc1Cn1c(C(=O)O)c(Cc3cccc(C(=O)O)c3)c(=O)c3cc(OCC(C)C)ccc31)OCO2` were 1980 nM, 6.3 nM and 315.
The matching figures for `CCc1cc2c(cc1Cn1c(C(=O)O)c(Cc3cccc(C(=O)O)c3)c(=O)c3ccccc31)OCO2`: 571 nM, 0.69 nM and 827.
Taken in the same sequence, the figures for `CCc1cc2c(cc1Cn1c(C(=O)O)c(Cc3cccc(C(=O)O)c3)c(=O)c3cc(OCOC)ccc31)OCO2` were 1030 nM, 24.4 nM and 43.
